Source: patent US8772323B2, “Benzoxazole- and tetrahydrobenzoxazole-substituted pyridazinones as GPR119 agonists” (Boehringer Ingelheim International GmbH, priority 2010, dated 2014)
Counter-ions that a name gives are not always drawn.

Biological target: human GPR119 (Homo sapiens (Human), UniProt Q8TDV5)
Assay: AlphaScreen cAMP assay in Min-6/hGPR119 cells (GPR119 activation, intracellular cAMP)
Format: cell-based
Conditions: MIN6 cells stably transfected with human GPR119; 45 minutes' incubation at RT; AlphaScreen cAMP Assay Kit
Procedure: The compounds of formula I according to the invention are GPR119 agonists. The effect of the compounds on the activation of GPR119 and on the stimulation of intracellular cAMP concentration is determined using the AlphaScreen cAMP Assay Kit (Cat. No. #6760625R) made by PerkinElmer.
MIN6 cells [Miyazaki J et al. Endocrinology. 1990 July; 127(1):126-32] were stably transfected with an expression vector for human GPR119 cDNA (Acc. No. NP_848566). Min-6/hGPR119 cells are cultured in DMEM, 10% FBS, 50 μM β-mercaptoethanol, 0.3 mg/mL Geniticin, 2 mM GlutaMAX at 37° C. 5% CO2. For the assay, the cells are placed in Optiplates (white, 384-well, 160W-barcoded, TC, sterile with lid, Cat. No. #6007688 (Perkin Elmer); 10000 cells/well; 50 μl). The plates covered with lids are then incubated for 24 hours at 37° C./5% CO2.
After the medium has been sucked out of the wells completely, 10 μl of the test compound are added, the compounds are diluted beforehand with stimulating buffer (140 mM NaCl, 3.6 mM KCl, 0.5 mM NaH2PO4, 0.5 mM MgSO4, 1.5 mM CaCl2, 10 mM Hepes, 5 mM NaHCO3; pH 7.4. 0.5 mM IBMX and 0.1% BSA, the final DMSO concentration is 1%). After 45 minutes' incubation at RT, the cAMP concentrations are determined using the AlphaScreen cAMP Assay Kit (Cat. No. #6760625R from PerkinElmer).

Chain of human GPR119 (Q8TDV5 whole entry): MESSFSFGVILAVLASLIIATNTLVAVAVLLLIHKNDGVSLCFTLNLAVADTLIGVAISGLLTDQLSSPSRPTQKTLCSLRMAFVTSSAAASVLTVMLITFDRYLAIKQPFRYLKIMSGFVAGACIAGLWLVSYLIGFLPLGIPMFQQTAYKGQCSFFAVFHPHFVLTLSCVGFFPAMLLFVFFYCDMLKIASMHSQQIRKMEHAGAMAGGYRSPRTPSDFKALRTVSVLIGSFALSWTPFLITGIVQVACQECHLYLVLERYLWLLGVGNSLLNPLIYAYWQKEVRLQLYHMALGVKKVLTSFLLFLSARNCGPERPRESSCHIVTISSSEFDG

SMILES | EC50 [nM]
CCC1CC(=O)NN=C1c1ccc2nc(-c3ccc(OCC(=O)N(C)C)cc3)oc2c1 (centres unmarked) [Example 41, 2-{4-[6-(4-ethyl-6-oxo-1,4,5,6-tetrahydro-pyridazin-3-yl)-benzoxazol-2-yl]-phenoxy}-N,N-dimethyl-acetamide] | 1520
CCC1CC(=O)NN=C1c1ccc2nc(-c3ccc(OCc4cncn4C)cc3)oc2c1 (centres unmarked) [Example 42, 5-ethyl-6-{2-[4-(3-methyl-3H-imidazol-4-ylmethoxy)-phenyl]-benzoxazol-6-yl}-4,5-dihydro-2H-pyridazin-3-one] | 4180
CCC1CC(=O)NN=C1c1ccc2nc(-c3ccc(OCC(=O)NC)cc3)oc2c1 (centres unmarked) [Example 43, 2-{4-[6-(4-ethyl-6-oxo-1,4,5,6-tetrahydro-pyridazin-3-yl)-benzoxazol-2-yl]-phenoxy}-N-methyl-acetamide] | 1080
CCC1CC(=O)NN=C1c1ccc2nc(-c3ccc(OCCN4CCN(C)CC4)cc3)oc2c1 (centres unmarked) [Example 44, 5-ethyl-6-(2-{4-[2-(4-methyl-piperazin-1-yl)-ethoxy]-phenyl}-benzoxazol-6-yl)-4,5-dihydro-2H-pyridazin-3-one dihydrochloride] | 1090
CCC1CC(=O)NN=C1c1ccc2nc(-c3cccc(OCc4cccnc4)c3)oc2c1 (centres unmarked) [Example 45, 5-ethyl-6-{2-[3-(pyridin-3-ylmethoxy)-phenyl]-benzoxazol-6-yl}-4,5-dihydro-2H-pyridazin-3-one] | 807
CCC1CC(=O)NN=C1c1ccc2nc(-c3ccc(OCc4ccncc4)cc3)oc2c1 (centres unmarked) [Example 46, 5-ethyl-6-{2-[4-(pyridin-4-ylmethoxy)-phenyl]-benzoxazol-6-yl}-4,5-dihydro-2H-pyridazin-3-one] | 345
CCC1CC(=O)NN=C1c1ccc2nc(-c3ccc(OCc4ccccn4)cc3)oc2c1 (centres unmarked) [Example 47, 5-ethyl-6-{2-[4-(pyridin-2-ylmethoxy)-phenyl]-benzoxazol-6-yl}-4,5-dihydro-2H-pyridazin-3-one] | 226
CCC1CC(=O)NN=C1c1ccc2nc(-c3ccc(OCc4ccsc4)cc3)oc2c1 (centres unmarked) [Example 48, 5-ethyl-6-{2-[4-(thiophen-3-ylmethoxy)-phenyl]-benzoxazol-6-yl}-4,5-dihydro-2H-pyridazin-3-one] | 348
CCC1CC(=O)NN=C1c1ccc2nc(-c3ccc(OCCN4CCCCC4)cc3)oc2c1 (centres unmarked) [Example 49, 5-ethyl-6-{2-[4-(2-piperidin-1-yl-ethoxy)-phenyl]-benzoxazol-6-yl}-4,5-dihydro-2H-pyridazin-3-one] | 114
CCC1CC(=O)NN=C1c1ccc2nc(-c3ccc(OCc4nc(C(C)C)no4)cc3)oc2c1 (centres unmarked) [Example 50, 5-ethyl-6-{2-[4-(3-isopropyl-[1,2,4]oxadiazol-5-ylmethoxy)-phenyl]-benzoxazol-6-yl}-4,5-dihydro-2H-pyridazin-3-one] | 223
CCC1CC(=O)NN=C1c1ccc2nc(-c3ccc(OCc4cccs4)cc3)oc2c1 (centres unmarked) [Example 51, 5-ethyl-6-{2-[4-(thiophen-2-ylmethoxy)-phenyl]-benzoxazol-6-yl}-4,5-dihydro-2H-pyridazin-3-one] | 158
CCCOc1ccc(-c2nc3ccc(C4=NNC(=O)CC4CC)cc3o2)cc1 (centres unmarked) [Example 52, 5-ethyl-6-[2-(4-propoxy-phenyl)-benzoxazol-6-yl]-4,5-dihydro-2H-pyridazin-3-one] | 189
CCC1CC(=O)NN=C1c1ccc2nc(-c3ccc(OCCN4CCCCCC4)cc3)oc2c1 (centres unmarked) [Example 53, 6-{2-[4-(2-azepan-1-yl-ethoxy)-phenyl]-benzoxazol-6-yl}-5-ethyl-4,5-dihydro-2H-pyridazin-3-one] | 205
CCC1CC(=O)NN=C1c1ccc2nc(-c3ccc(OCC4CCCCC4)cc3)oc2c1 (centres unmarked) [Example 54, 6-[2-(4-cyclohexylmethoxy-phenyl)-benzoxazol-6-yl]-5-ethyl-4,5-dihydro-2H-pyridazin-3-one] | 145
CCC1CC(=O)NN=C1c1ccc2nc(-c3ccc(OCCN(C)C)cc3)oc2c1 (centres unmarked) [Example 55, 6-{2-[4-(2-dimethylamino-ethoxy)-phenyl]-benzoxazol-6-yl}-5-ethyl-4,5-dihydro-2H-pyridazin-3-one] | 486
CCC1CC(=O)NN=C1c1ccc2nc(-c3ccc(OCCC4CCCCC4)cc3)oc2c1 (centres unmarked) [Example 56, 6-{2-[4-(2-cyclohexyl-ethoxy)-phenyl]-benzoxazol-6-yl}-5-ethyl-4,5-dihydro-2H-pyridazin-3-one] | 170

SMILES | EC50 [nM]
CCC1CC(=O)NN=C1c1ccc2nc(-c3ccc(OCCN(C(C)C)C(C)C)cc3)oc2c1 (centres unmarked) [Example 57, 6-{2-[4-(2-diisopropylamino-ethoxy)-phenyl]-benzoxazol-6-yl}-5-ethyl-4,5-dihydro-2H-pyridazin-3-one] | 37
CCC1CC(=O)NN=C1c1ccc2nc(-c3ccc(OCCN4C(C)(C)CCCC4(C)C)cc3)oc2c1 (centres unmarked) [Example 58, 5-ethyl-6-(2-{4-[2-(2,2,6,6-tetramethyl-piperidin-1-yl)-ethoxy]-phenyl}-benzoxazol-6-yl)-4,5-dihydro-2H-pyridazin-3-one] | 76
CCC1CC(=O)NN=C1c1ccc2nc(-c3ccc(OCc4cncnc4)cc3)oc2c1 (centres unmarked) [Example 59, 5-ethyl-6-{2-[4-(pyrimidin-5-ylmethoxy)-phenyl]-benzoxazol-6-yl}-4,5-dihydro-2H-pyridazin-3-one] | 1590
CCC1CC(=O)NN=C1c1ccc2nc(-c3ccc(OCc4cccnc4)cc3)oc2c1 (centres unmarked) [Example 60, 5-ethyl-6-{2-[4-(pyridin-3-ylmethoxy)-phenyl]-benzoxazol-6-yl}-4,5-dihydro-2H-pyridazin-3-one] | 639
CCC1CC(=O)NN=C1c1ccc2nc(-c3ccc(OCC(=O)N4CCCCC4)cc3)oc2c1 (centres unmarked) [Example 61, 5-ethyl-6-{2-[4-(2-oxo-2-piperidin-1-yl-ethoxy)-phenyl]-benzoxazol-6-yl}-4,5-dihydro-2H-pyridazin-3-one] | 342
CCC1CC(=O)NN=C1c1ccc2nc(-c3ccc(OCCCN(C)C)cc3)oc2c1 (centres unmarked) [Example 62, 6-{2-[4-(3-dimethylamino-propoxy)-phenyl]-benzoxazol-6-yl}-5-ethyl-4,5-dihydro-2H-pyridazin-3-one] | 552
CCC1CC(=O)NN=C1c1ccc2nc(-c3ccc(OCc4cnco4)cc3)oc2c1 (centres unmarked) [Example 63, 5-ethyl-6-{2-[4-(oxazol-5-ylmethoxy)-phenyl]-benzoxazol-6-yl}-4,5-dihydro-2H-pyridazin-3-one] | 324
CCC1CC(=O)NN=C1c1ccc2nc(-c3ccc(OCCN4CCOCC4)cc3)oc2c1 (centres unmarked) [Example 64, 5-ethyl-6-{2-[4-(2-morpholin-4-yl-ethoxy)-phenyl]-benzoxazol-6-yl}-4,5-dihydro-2H-pyridazin-3-one] | 237
CCC1CC(=O)NN=C1c1ccc2nc(-c3cccc(OCc4ccccn4)c3)oc2c1 (centres unmarked) [Example 65, 5-ethyl-6-{2-[3-(pyridin-2-ylmethoxy)-phenyl]-benzoxazol-6-yl}-4,5-dihydro-2H-pyridazin-3-one] | 426
CCC1CC(=O)NN=C1c1ccc2nc(-c3ccc(OCC(=O)OC(C)(C)C)cc3)oc2c1 (centres unmarked) [Example 66, tert-butyl {4-[6-(4-ethyl-6-oxo-1,4,5,6-tetrahydro-pyridazin-3-yl)-benzoxazol-2-yl]-phenoxy}-acetate] | 112
CCC1CC(=O)NN=C1c1ccc2nc(-c3ccc(OCC4CCN(C(=O)OC(C)(C)C)CC4)cc3)oc2c1 (centres unmarked) [Example 67, tert-butyl 4-{4-[6-(4-ethyl-6-oxo-1,4,5,6-tetrahydro-pyridazin-3-yl)-benzoxazol-2-yl]-phenoxymethyl}-piperidine-1-carboxylate] | 51
CCC1CC(=O)NN=C1c1ccc2nc(-c3ccc(OC4CCN(C(=O)OC(C)(C)C)CC4)cc3)oc2c1 (centres unmarked) [Example 68, tert-butyl 4-{4-[6-(4-ethyl-6-oxo-1,4,5,6-tetrahydro-pyridazin-3-yl)-benzoxazol-2-yl]-phenoxy}-piperidin-1-carboxylate] | 60
CC1CC(=O)NN=C1c1ccc2nc(-c3cccc(OCC4CCN(C(=O)OC(C)(C)C)CC4)c3)oc2c1 (centres unmarked) [Example 69, tert-butyl 4-{3-[6-(4-methyl-6-oxo-1,4,5,6-tetrahydro-pyridazin-3-yl)-benzoxazol-2-yl]-phenoxymethyl}-piperidin-1-carboxylate] | 143
CCC1CC(=O)NN=C1c1ccc2nc(-c3ccc(OCC(=O)O)cc3)oc2c1 (centres unmarked) [Example 70, 4-[6-(4-ethyl-6-oxo-1,4,5,6-tetrahydro-pyridazin-3-yl)-benzoxazol-2-yl]-phenoxy-acetic acid] | 3910
CCC1CC(=O)NN=C1c1ccc2nc(-c3ccc(OCC4CCNCC4)cc3)oc2c1 (centres unmarked) [Example 71, 4-{4-[6-(4-ethyl-6-oxo-1,4,5,6-tetrahydro-pyridazin-3-yl)-benzoxazol-2-yl]-phenoxymethyl}-piperidine as hydrochloride] | > 10000
CCC1CC(=O)NN=C1c1ccc2nc(-c3ccc(OC4CCNCC4)cc3)oc2c1 (centres unmarked) [Example 72, 5-ethyl-6-{2-[4-(piperidin-4-yloxy)-phenyl]-benzoxazol-6-yl}-4,5-dihydro-2H-pyridazin-3-one hydrochloride] | 1810
